Reference: the supplement of paper PMC10307832

Tests used:
Assay in all cases: relative viability (nuclei count vs DMSO), 5 days (fraction); higher = more cells survive
[1] = compound: COC1=C(C=C(C=C1)C2=CC3=NC=CN3C(=N2)NC4=C(C=CC=N4)C(=O)N)OC [BAY61-3606] + CCNC(=O)c1noc(-c2cc(C(C)C)c(O)cc2O)c1-c1ccc(CN2CCOCC2)cc1 [Luminespib] (partner 0.01 µM)
Method in brief: (§1)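 Lung cancer cell lines in 1536-well plates got either a single drug or a fixed anchor-drug dose together with five library-drug doses (not always all listed) in √10 steps, by pin tool, on the day after seeding. Nuclei were counted after 5 days, and relative viability is the treated-to-vehicle ratio of nuclei counts. Values are medians of duplicate plates.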

[2] = compound: COc1cccc2c1C(=O)c1c(O)c3c(c(O)c1C2=O)C[C@@](O)(C(=O)CO)C[C@@H]3O[C@H]1C[C@H](N)[C@H](O)[C@H](C)O1 [Doxorubicin] + COc1cccc2cc(-c3nc([C@H]4CC[C@H](C(=O)O)CC4)n4ncnc(N)c34)[nH]c12 [OSI-027] (partner 0.5 µM)
Method in brief: as §1

[3] = compound: COc1cccc2c1C(=O)c1c(O)c3c(c(O)c1C2=O)C[C@@](O)(C(=O)CO)C[C@@H]3O[C@H]1C[C@H](N)[C@H](O)[C@H](C)O1 [Doxorubicin] + CC(=O)c1c(C)c2cnc(Nc3ccc(N4CCNCC4)cn3)nc2n(C2CCCC2)c1=O [Palbociclib] (partner 0.5 µM)
Method in brief: as §1

[4] = compound: COc1cccc2c1C(=O)c1c(O)c3c(c(O)c1C2=O)C[C@@](O)(C(=O)CO)C[C@@H]3O[C@H]1C[C@H](N)[C@H](O)[C@H](C)O1 [Doxorubicin] + O=C(CCCCCCC(=O)Nc1ccccc1)NO [Vorinostat] (partner 1 µM)
Method in brief: as §1

## UMC-11
[1]; first compound 0.02 µM
  relative viability: 1.12
[1]; first compound 0.06325 µM
  relative viability: 1.17
[1]; first compound 0.2 µM
  relative viability: 1.08
[1]; first compound 0.6325 µM
  relative viability: 1.05
[1]; first compound 2 µM
  relative viability: 0.921
[2]; first compound 0.001 µM
  relative viability: 0.514
[2]; first compound 0.003162 µM
  relative viability: 0.425
[2]; first compound 0.01 µM
  relative viability: 0.482
[2]; first compound 0.03162 µM
  relative viability: 0.436
[2]; first compound 0.1 µM
  relative viability: 0.368
[3]; first compound 0.001 µM
  relative viability: 0.378
[3]; first compound 0.003162 µM
  relative viability: 0.339
[3]; first compound 0.01 µM
  relative viability: 0.314
[3]; first compound 0.03162 µM
  relative viability: 0.256
[3]; first compound 0.1 µM
  relative viability: 0.325
[4]; first compound 0.001 µM
  relative viability: 0.52
[4]; first compound 0.003162 µM
  relative viability: 0.354
[4]; first compound 0.01 µM
  relative viability: 0.432
[4]; first compound 0.03162 µM
  relative viability: 0.329
[4]; first compound 0.1 µM
  relative viability: 0.37
